Results from ChEMBL document CHEMBL5154787 (J Med Chem, 2022).

Tests used:
[1] = Metabolic stability in human liver microsomes assessed as parent compound remaining at 0.5 uM incubated for 10 mins in presence of NADPH by LC-MS/MS analysis; type: ADME, Microsome; conditions: read-out: Stability
[2] = molecular target: Dual specificity protein kinase CLK4 (Homo sapiens, UniProt Q9HAZ1); assay: Inhibition of CLK4 (unknown origin)
[3] = molecular target: AP2-associated protein kinase 1 (Mus musculus, UniProt Q3UHJ0); assay: Displacement of 3H-LP-927443 from AAK1 in C57BL6 mouse brain homogenate assessed as inhibition constant incubated for 1 hr by liquid scintillation counter analysis; type: tissue-based
Chain of AP2-associated protein kinase 1 (Mus musculus, UniProt Q3UHJ0) (Q3UHJ0 whole entry): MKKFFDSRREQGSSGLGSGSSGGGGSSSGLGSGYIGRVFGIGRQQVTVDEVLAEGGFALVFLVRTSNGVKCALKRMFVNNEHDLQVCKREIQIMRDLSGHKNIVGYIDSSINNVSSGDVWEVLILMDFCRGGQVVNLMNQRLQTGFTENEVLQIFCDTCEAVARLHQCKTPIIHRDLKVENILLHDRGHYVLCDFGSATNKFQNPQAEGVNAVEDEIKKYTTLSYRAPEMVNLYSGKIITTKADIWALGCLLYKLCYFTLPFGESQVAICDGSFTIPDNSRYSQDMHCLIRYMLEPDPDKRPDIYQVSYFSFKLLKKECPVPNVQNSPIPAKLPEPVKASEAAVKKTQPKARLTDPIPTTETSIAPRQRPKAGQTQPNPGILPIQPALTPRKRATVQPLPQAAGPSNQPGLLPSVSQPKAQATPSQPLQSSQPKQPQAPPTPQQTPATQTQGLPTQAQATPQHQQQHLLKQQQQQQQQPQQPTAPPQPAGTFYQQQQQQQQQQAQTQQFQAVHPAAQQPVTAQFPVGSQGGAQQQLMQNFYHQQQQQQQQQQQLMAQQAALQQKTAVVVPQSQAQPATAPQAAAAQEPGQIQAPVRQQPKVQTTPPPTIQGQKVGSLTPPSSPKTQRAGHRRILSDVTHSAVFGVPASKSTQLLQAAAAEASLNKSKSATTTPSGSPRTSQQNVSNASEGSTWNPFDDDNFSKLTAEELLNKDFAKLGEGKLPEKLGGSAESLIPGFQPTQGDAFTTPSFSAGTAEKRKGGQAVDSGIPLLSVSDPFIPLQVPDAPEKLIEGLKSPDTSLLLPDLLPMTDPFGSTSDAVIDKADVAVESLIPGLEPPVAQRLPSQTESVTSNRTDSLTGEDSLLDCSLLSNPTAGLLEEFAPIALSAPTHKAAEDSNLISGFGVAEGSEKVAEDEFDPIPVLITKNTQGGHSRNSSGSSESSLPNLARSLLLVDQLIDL

[4] = molecular target: Rho-associated protein kinase 2 (Homo sapiens, UniProt O75116); assay: Inhibition of ROCK2 (unknown origin)
Chain of Rho-associated protein kinase 2 (O75116 whole entry): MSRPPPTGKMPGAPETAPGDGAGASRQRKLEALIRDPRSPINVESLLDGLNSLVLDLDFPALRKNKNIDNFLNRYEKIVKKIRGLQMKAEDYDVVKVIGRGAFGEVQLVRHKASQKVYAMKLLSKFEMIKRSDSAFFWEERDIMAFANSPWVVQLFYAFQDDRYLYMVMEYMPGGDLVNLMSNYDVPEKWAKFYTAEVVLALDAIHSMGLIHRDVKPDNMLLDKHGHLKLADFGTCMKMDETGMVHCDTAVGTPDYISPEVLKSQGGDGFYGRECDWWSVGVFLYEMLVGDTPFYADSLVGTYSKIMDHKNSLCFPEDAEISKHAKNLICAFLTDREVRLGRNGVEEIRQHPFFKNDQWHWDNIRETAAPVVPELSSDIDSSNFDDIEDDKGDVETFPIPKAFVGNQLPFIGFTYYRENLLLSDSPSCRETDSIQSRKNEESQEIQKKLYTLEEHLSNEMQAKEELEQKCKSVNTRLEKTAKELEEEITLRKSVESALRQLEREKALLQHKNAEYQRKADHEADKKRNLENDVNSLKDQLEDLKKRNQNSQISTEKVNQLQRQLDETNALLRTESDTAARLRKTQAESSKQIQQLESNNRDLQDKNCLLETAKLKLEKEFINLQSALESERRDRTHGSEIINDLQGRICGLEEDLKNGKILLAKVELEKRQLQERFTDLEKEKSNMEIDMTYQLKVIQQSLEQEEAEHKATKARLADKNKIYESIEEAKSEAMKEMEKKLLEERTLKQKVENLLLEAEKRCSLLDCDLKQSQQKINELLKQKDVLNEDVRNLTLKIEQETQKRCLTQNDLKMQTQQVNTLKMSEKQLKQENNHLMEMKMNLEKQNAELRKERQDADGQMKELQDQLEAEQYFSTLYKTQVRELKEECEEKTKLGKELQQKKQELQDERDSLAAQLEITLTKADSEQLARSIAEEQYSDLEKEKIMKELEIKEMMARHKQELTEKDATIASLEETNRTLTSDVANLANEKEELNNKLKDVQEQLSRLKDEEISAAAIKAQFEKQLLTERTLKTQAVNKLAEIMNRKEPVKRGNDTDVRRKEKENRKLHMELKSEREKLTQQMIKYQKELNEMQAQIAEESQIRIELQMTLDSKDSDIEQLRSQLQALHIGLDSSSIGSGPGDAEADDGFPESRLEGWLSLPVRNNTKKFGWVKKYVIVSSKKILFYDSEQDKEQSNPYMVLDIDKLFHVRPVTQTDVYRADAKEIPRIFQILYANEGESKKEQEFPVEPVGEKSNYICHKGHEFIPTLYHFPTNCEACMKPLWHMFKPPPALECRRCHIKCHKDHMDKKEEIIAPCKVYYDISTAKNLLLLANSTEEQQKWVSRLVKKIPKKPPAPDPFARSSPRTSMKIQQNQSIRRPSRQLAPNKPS

[5] = molecular target: MAP kinase-interacting serine/threonine-protein kinase 2 (Homo sapiens, UniProt Q9HBH9); assay: Inhibition of MNK2 (unknown origin)
Chain of MAP kinase-interacting serine/threonine-protein kinase 2 (Q9HBH9 whole entry): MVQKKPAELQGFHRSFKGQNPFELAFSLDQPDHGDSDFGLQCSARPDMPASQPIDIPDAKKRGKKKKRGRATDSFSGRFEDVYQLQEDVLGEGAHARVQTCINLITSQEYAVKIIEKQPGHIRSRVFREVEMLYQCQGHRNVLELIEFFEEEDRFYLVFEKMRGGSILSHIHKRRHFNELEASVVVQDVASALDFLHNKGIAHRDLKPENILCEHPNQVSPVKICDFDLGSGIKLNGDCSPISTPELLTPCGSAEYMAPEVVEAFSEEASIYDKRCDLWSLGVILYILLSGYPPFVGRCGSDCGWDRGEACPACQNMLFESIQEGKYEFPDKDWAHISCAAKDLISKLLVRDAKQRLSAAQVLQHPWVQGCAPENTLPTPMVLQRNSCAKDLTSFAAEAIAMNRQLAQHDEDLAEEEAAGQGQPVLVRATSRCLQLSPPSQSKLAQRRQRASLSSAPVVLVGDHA

[6] = Cardiotoxicity in aortic ring (unknown origin) assessed as relaxation of phenylephrine induced aortic ring contraction at 10 uM incubated for 1 hr; type: toxicity, tissue-based, Aorta; parameters: scale not given: the % may be the effect or the level left; conditions: human
[7] = molecular target: T1, AP2-associated protein kinase 1 (Homo sapiens, UniProt Q2M2I8); assay: Inhibition of bacterially expressed GST-Xa-tagged human AAK1 using 5-FAM-labelled Aha-KEEQSQITSQVTGQIGWR-NH2 peptide as substrate incubated for 3 hrs in presence of ATP by electrophoretic analysis
T1 sequence (Q2M2I8 whole entry): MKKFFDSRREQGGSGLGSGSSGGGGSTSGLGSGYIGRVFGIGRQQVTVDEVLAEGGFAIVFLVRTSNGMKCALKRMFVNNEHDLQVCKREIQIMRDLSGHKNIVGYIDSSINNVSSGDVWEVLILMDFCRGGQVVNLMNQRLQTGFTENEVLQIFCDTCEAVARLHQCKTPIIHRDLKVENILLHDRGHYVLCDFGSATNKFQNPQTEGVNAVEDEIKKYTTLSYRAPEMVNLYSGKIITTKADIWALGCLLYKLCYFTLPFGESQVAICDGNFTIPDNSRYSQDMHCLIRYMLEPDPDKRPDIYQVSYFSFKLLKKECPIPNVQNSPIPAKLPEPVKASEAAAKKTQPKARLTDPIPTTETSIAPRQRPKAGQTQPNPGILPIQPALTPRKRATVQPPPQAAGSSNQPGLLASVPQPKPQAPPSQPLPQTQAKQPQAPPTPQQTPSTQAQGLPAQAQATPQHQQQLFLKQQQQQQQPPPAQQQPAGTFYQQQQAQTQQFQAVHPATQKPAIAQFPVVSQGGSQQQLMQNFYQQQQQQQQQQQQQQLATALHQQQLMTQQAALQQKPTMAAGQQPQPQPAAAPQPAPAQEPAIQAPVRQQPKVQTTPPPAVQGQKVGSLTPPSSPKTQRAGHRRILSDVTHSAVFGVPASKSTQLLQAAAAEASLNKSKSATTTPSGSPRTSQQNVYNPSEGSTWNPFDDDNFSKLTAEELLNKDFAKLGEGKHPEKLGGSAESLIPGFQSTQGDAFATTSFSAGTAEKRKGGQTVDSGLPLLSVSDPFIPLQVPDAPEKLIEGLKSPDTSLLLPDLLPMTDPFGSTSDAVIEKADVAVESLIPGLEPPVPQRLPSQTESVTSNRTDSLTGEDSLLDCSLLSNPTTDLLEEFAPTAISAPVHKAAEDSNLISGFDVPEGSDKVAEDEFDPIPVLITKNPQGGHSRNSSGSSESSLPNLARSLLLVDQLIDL

Cytochrome P450 3A4 = Cytochrome P450 3A4 (Homo sapiens, UniProt P08684); assay: Inhibition of CYP3A4 (unknown origin) incubated for 10 mins in presence of NADPH by LC-MS/MS analysis; type: ADME
Chain of Cytochrome P450 3A4 (P08684 whole entry): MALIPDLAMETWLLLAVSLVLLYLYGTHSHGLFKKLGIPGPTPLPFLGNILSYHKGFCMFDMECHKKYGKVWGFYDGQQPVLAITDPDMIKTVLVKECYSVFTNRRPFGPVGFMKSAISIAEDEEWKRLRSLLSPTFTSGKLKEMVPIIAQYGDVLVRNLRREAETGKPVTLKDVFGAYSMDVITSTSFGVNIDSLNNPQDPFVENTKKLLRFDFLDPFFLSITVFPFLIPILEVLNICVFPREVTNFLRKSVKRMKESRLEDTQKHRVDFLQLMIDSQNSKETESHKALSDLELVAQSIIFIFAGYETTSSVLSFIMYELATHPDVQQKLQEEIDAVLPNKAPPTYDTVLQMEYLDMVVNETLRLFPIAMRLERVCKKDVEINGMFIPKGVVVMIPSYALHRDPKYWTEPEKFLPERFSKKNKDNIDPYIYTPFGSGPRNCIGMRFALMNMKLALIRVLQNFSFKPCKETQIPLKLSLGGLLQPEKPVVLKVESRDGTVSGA

[8] = molecular target: Dual specificity protein kinase CLK1 (Homo sapiens, UniProt P49759); assay: Inhibition of CLK1 (unknown origin)
[9] = Metabolic stability in rat liver microsomes assessed as parent compound remaining at 0.5 uM incubated for 10 mins in presence of NADPH by LC-MS/MS analysis; type: ADME, Microsome; conditions: read-out: Stability
[10] = Metabolic stability in mouse liver microsomes assessed as parent compound remaining at 0.5 uM incubated for 10 mins in presence of NADPH by LC-MS/MS analysis; type: ADME, Microsome; conditions: liver microsomes, read-out: Stability
Myotonin-protein kinase = Myotonin-protein kinase (Homo sapiens, UniProt Q09013); assay: Inhibition of DMPK1 (unknown origin)
[11] = Inhibition of MEK (unknown origin); parameters: species or system Homo sapiens
[12] = molecular target: Tyrosine-protein kinase receptor TYRO3 (Homo sapiens, UniProt Q06418); assay: Inhibition of TYRO3 (unknown origin)
[13] = Inhibition of CK2A2 (unknown origin); parameters: species or system Homo sapiens
[14] = molecular target: Death-associated protein kinase 3 (Homo sapiens, UniProt O43293); assay: Inhibition of DAPK3 (unknown origin)
[15] = molecular target: T2, Homeodomain-interacting protein kinase 4 (Homo sapiens, UniProt Q8NE63); assay: Inhibition of HIPK4 (unknown origin)
T2 sequence (Q8NE63 whole entry): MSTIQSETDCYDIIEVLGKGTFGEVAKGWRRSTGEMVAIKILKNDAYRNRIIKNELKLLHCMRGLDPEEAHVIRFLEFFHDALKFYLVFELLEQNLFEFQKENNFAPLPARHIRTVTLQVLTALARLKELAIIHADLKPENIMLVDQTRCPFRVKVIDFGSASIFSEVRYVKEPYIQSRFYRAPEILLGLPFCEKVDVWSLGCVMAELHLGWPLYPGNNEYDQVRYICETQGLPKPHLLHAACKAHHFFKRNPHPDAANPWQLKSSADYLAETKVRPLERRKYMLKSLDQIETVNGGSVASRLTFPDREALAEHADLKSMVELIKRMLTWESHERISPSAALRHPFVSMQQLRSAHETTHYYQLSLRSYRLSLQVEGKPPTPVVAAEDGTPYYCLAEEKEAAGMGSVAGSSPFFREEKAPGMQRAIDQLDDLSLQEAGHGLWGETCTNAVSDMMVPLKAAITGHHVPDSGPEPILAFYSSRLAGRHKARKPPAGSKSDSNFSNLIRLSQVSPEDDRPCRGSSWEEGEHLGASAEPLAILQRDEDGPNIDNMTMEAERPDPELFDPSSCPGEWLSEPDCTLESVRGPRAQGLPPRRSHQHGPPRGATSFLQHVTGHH

[16] = molecular target: Death-associated protein kinase 1 (Homo sapiens, UniProt P53355); assay: Inhibition of DAPK1 (unknown origin)
[17] = molecular target: BMP-2-inducible protein kinase (Homo sapiens, UniProt Q9NSY1); assay: Inhibition of BIKE (unknown origin)
[18] = molecular target: T3, Cyclin-G-associated kinase (Homo sapiens, UniProt O14976); assay: Inhibition of GAK (unknown origin)
T3 sequence (O14976 whole entry): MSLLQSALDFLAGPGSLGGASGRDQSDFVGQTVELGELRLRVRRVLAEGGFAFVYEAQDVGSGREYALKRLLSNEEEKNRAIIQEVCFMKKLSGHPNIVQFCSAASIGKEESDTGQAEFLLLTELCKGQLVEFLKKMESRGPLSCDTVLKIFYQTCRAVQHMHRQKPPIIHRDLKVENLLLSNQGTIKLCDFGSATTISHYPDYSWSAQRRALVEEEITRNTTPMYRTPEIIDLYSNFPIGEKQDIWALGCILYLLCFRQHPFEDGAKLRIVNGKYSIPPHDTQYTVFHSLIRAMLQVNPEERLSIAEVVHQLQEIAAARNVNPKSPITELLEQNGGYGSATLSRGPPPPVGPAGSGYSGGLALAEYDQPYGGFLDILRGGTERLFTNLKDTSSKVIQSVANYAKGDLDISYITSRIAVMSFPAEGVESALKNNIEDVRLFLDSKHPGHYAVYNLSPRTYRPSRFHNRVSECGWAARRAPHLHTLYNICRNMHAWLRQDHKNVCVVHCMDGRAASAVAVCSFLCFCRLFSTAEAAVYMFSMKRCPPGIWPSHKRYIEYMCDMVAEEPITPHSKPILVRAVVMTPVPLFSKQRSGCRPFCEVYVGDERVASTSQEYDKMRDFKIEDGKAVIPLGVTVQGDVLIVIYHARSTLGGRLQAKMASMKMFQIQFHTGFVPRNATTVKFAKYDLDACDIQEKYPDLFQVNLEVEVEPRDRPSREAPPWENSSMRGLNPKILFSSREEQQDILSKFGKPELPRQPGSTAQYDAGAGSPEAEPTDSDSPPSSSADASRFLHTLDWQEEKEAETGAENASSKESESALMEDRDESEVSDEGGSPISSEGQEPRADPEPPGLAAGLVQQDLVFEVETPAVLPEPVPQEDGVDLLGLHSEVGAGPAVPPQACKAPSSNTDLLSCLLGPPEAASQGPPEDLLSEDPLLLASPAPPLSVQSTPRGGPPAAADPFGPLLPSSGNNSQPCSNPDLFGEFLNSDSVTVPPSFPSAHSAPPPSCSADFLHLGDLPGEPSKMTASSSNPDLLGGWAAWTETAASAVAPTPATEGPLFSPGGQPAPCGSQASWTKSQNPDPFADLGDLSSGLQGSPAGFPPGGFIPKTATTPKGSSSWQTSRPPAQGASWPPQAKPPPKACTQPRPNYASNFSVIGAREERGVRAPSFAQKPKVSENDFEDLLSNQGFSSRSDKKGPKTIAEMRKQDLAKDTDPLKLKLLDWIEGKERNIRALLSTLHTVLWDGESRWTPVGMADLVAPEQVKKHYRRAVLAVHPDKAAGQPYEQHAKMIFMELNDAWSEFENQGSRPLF

[19] = molecular target: T4, Dual specificity mitogen-activated protein kinase kinase 1 (Homo sapiens, UniProt Q02750); assay: Inhibition of MAP2K1 (unknown origin)
[20] = molecular target: T1, AP2-associated protein kinase 1; assay: Inhibition of full length human AAK1 expressed in HEK293F cells assessed as suppression of AP2 phosphorylation measured after 3 hrs by Western blot analysis based cellular assay; type: cell-based
[21] = molecular target: T4, Dual specificity mitogen-activated protein kinase kinase 1; assay: Inhibition of MEK1 (unknown origin)

Chain of Dual specificity protein kinase CLK4 (Q9HAZ1 whole entry): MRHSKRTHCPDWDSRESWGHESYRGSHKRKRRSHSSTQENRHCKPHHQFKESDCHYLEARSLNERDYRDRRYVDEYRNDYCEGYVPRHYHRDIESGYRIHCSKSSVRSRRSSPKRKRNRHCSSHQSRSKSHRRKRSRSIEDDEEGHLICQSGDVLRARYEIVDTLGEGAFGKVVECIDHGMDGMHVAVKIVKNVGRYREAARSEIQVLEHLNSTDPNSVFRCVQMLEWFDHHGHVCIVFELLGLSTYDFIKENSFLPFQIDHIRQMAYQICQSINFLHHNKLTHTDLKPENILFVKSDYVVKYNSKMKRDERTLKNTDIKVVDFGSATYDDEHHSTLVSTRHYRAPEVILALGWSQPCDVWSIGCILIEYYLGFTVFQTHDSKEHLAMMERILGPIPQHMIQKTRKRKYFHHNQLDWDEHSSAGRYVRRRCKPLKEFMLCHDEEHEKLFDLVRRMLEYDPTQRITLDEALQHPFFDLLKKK

| remaining at 10 min, 0.5 µM [1] | IC50 [2] | Ki [3] | IC50 [4] | IC50 [5] | IC50 [7] | IC50 (Cytochrome P450 3A4) | remaining at 10 min, 0.5 µM [9] | remaining at 10 min, 0.5 µM [10] | IC50 [15] | IC50 [17] | SMILES | Activity [6] | other results |
| --- | --- | --- | --- | --- | --- | --- | --- | --- | --- | --- | --- | --- | --- |
| 95% | 590 nM | 0.15 nM | 1100 nM | 900 nM | 1 nM | 2200 nM | 80% | 86% |  |  | COC(=O)Nc1cc(-c2cnc(OC[C@@](C)(N)CC(C)C)c(C#N)c2)ccn1 | 95% | IC50 [8]: 1700 nM |
| 77% |  | 0.07 nM | 140 nM | 120 nM | 0.8 nM | > 20000 nM | 91% | 84% | 650 nM | 20 nM | COC(=O)Nc1cc(-c2ccc(OC[C@@](C)(N)CC(C)C)c(C(F)F)n2)ccn1 | 89% | IC50 (Myotonin-protein kinase): 1500 nM; IC50 [11]: 610 nM; IC50 [12]: 1300 nM; IC50 [13]: 680 nM; IC50 [14]: 1100 nM; IC50 [16]: 560 nM; IC50 [18]: 160 nM |
| 90% | 740 nM | 0.11 nM | 1100 nM |  | 0.4 nM | > 20000 nM | 73% | 65% | 1300 nM | 6 nM | COC(=O)Nc1cc(-c2cnc(OC[C@@](C)(N)CC(C)C)c(Cl)c2)ccn1 | 87% | IC50 [19]: 1860 nM; IC50 [20]: 4.2 nM; IC50 [21]: 1800 nM |
